Data reported in patent US6090786A, “Serine proteases, their activity and their synthetic inhibitors” (priority 1994, dated 2000).
Structures can show the parent of a compound that is named as a salt. Where two headings read alike, the source gives them in different places. No end group written: not given here.

Legend:
DPPIV [1] = target: T1, DPPIV (Homo sapiens, UniProt P27487); assay: biochemical; type: biochemical
T1 construct: from tissue; host or cells: prostasomes from human seminal plasma, purified on immobilized adenosine deaminase
T1 sequence (P27487 whole entry): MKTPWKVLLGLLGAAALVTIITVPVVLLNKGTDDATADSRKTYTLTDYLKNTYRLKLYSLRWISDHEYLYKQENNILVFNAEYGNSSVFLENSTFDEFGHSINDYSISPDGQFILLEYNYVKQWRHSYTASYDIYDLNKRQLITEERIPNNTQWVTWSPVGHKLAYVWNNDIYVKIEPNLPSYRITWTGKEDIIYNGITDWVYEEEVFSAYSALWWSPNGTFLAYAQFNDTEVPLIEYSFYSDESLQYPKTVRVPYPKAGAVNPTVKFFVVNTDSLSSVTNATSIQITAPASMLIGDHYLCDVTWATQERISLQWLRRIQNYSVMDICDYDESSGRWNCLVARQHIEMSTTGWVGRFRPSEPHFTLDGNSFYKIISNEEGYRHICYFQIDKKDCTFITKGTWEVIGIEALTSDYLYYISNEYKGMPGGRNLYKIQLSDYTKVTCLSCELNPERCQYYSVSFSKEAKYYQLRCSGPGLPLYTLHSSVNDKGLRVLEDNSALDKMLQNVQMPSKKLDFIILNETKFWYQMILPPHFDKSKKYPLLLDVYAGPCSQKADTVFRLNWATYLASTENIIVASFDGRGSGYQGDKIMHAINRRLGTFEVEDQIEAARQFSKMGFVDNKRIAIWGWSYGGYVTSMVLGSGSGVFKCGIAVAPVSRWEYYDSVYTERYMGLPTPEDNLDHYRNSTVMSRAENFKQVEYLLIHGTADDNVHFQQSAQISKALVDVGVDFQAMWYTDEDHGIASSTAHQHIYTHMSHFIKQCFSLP
Experimental: (§1) All enzymatic reactions were carried out in 50 mM Tris.HCl buffer pH 8.3 at 37° C. with Gly-Pro-4-Me-2-naphtylamine.HCl as substrate. One activity unit is defined as the amount of enzyme which catalyzes the conversion of 1 micromole of substrate per minute at 37° C. All experiments were carried out with the same stock solution of DPPIV containing 1.8 units/ml. The enzyme was diluted (usually 1/200 or 1/500) in reaction buffer immediately before the experiment to a suitable concentration so as not to consume more that 10% of the substrate during the incubation period.
The remaining activity was determined by adding 5 microliter of a 1 mM solution of Gly-Pro-4-Me-2-naphtylamine.HCl. The reaction mixture containing enzyme, substrate and inhibitor was incubated for 20 min at 37° C. The reaction was stopped by addition of 0.5 ml 100 mM citrate pH 4.0. The fluorescence of the sample was measured within 2 h after quenching. The measurements were done in duplicate and corrected for background fluorescence using a blanc with exactly the same composition except that the citrate solution was added before the substrate.

[2] = Functional stability of DPPIV inhibitors in the reaction medium (buffer); type: physicochemical; details: 50 mM TRIS buffer pH 8.3, 37° C.
Experimental: (§2) To determine the functional stability of the inhibitors in the reaction medium, a 10 mM stock solution in DMSO was diluted 50-fold in 50 mM TRIS buffer pH 8.3 and incubated at 37° C. To determine the functional stability in plasma, a 50 mM stock solution in DMSO was diluted 50-fold in fresh or freshly frozen citrated plasma from a healthy donor and incubated at 37° C. At specific time intervals an aliquot was withdrawn, added to an equal volume of DPPIV diluted in buffer or to an equal volume of plasma and the kinetics of inactivation were determined as described under b). The reduction in observed pseudo-first order rate constant is a measure for the amount of functional inhibitor lost during the incubation and allowed to estimate the half-life of the inhibitors in buffer and plasma. The following table lists the results.

[3] = Functional stability of DPPIV inhibitors in human citrated plasma; type: in vitro ADME; details: 37° C.
Experimental: as §2

DPPIV [4] = target: T1, DPPIV; type: biochemical; details: inhibitor 0.1 or 0.5 mM, 37° C.; k+ = kobs/[I]o
Experimental: as §1
The kinetics of inactivation were measured by adding an appropriate concentration of inhibitor (0.1 or 0.5 mM) to 0.5 ml of enzyme in reaction buffer at 37° C. and determining the activity at various time points after mixing. To achieve this, 25 microliter samples were withdrawn and diluted […] in 2 mM Gly-Pro-4-Me-2-naphthylamine.HCl. The reaction was quenched with citrate after 10 to 15 min and the fluorescence was determined. The dilution in an excess of substrate reduced the velocity of inhibitor binding by a factor of 20. The decrease in fluorescence with time was fitted with the equation of a monoexponential decay yielding the pseudo-first order rate constant for binding (kobs) in the exponent. The second order rate constant (k+) was calculated as follows: k+ =kobs /[I]o where [I]o is the concentration of inhibitor in the incubation mixture.

DPPIV [5] = target: T1, DPPIV; assay: Stability of the inhibitor-DPPIV adduct; type: biochemical; details: DPPIV incubated with 0.5 mM inhibitor 1 hour, excess removed by gel filtration
Experimental: The phosphorylated enzyme is expected to hydrolyze slowly by action of solvent or nucleophilic groups on the enzyme.
The stability of the adduct was determined as follows. […] Excess inhibitor was removed by gel filtration on a PD 10 column (Pharmacia Biotech, Uppsala, Sweden) previously equilibrated with 50 mM Tris.HCl buffer, pH 8.3.

[6] = target: T2, purified prolyl oligopeptidase (Homo sapiens, UniProt P48147); assay: biochemical
T2 construct: from tissue; host or cells: human blood cells: platelets or mononuclear cells, not specified
T2 sequence (P48147 1-710): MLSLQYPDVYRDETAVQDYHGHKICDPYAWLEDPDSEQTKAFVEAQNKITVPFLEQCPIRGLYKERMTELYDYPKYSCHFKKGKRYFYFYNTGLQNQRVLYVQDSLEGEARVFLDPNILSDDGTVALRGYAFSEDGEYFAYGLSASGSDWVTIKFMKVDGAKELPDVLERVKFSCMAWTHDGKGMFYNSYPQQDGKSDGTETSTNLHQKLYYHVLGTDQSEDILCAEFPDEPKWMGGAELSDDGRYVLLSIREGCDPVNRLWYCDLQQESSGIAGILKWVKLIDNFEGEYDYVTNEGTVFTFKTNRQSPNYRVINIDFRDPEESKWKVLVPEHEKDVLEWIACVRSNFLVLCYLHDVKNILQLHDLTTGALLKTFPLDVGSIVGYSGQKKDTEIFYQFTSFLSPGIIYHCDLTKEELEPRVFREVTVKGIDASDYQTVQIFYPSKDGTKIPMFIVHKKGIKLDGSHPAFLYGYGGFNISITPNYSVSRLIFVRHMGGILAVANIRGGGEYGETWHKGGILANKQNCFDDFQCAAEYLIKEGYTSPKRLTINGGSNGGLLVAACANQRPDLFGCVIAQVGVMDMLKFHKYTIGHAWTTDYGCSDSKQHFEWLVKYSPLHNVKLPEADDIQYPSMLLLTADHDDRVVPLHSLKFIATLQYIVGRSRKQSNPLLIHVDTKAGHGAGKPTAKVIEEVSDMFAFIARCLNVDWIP
Experimental: (§3) The remaining activity was determined by adding 5 μl substrate (Z-Gly-Pro-AMC, 5.6 mM) and measurement of the fluorescence at λex 370 nm, λem 440 nm after a further 20 min incubation at 37° C. The inhibitors were dissolved in methanol and control experiments were performed to correct for the presence of the solvents used. The IC50 value was derived from a plot, joining the residual activity and the dosis of the respective compounds (at least eight concentrations tested). The Ki values were derived from a direct linear plot (Dixon-plot). The measurements were performed in triplicate and only those lines having a correlation coefficient of at least 0.95 were used for determination of the Ki value.
Several peptides (cfr. table) were incubated with purified prolyl oligopeptidase. The compounds were dissolved in H2 O. The IC50 value was determined as previously described apart from the preincubation which was deleted. […]

[7] = target: T3, purified human platelet prolyl oligopeptidase (Homo sapiens, UniProt P48147); assay: In vitro inhibition of PEP; type: biochemical; details: for IC50: 20 min preincubation at 37° C., substrate Z-Gly-Pro-AMC; for Ki: Dixon-plot
T3 construct: purified human platelet prolyl oligopeptidase; from tissue; host or cells: human thrombocytes (platelets)
T3 sequence (P48147 1-710): T2 sequence (P48147 1-710)
Experimental: as §3

[8] = 1 hour preincubation at room temperature, substrate Gly-Pro-4-Me-2-naphtylamine.HCl, Tris.HCl pH 8.3, 37° C., inhibitory diastereoisomer unless marked *, read-out: IC50
[9] = peptides dissolved in H2O, no preincubation, read-out: IC50

Compound: CC[C@H](C)[C@H](N)C(=O)N1CCC(F)C1.O=C(O)C(F)(F)F (mixture of isomers) [Ile-3-Fluoro-pyrrolidine, 1-(L-Isoleucyl)-3(R,S)-fluoropyrrolidine trifluoroacetate]
- inhibitory activity on DPPIV (in words) (DPPIV [1]): particularly active inhibitor

Compound: Cl.Cl.N=C(N)NCCC[C@H](N)C(=O)N1CCCC1P(=O)(Oc1ccccc1)Oc1ccccc1 (stereo partly drawn) [(S)-Arg-(S,R)-Pro^P (OPh)2, Diphenyl (S,R)-1-[(S)-arginyl]pyrrolidine-2-phosphonate dihydrochloride]
- t1/2 in buffer [2]: 2.6 ± 0.3 h
- t1/2 in plasma [3]: 1.9 ± 0.2 h

Compound: CC[C@H](C)[C@H](N)C(=O)N1CCC[C@H]1P(=O)(Oc1ccccc1)Oc1ccccc1.Cl [(S)-Ile-(R)-Pro^P (OPh)2, Diphenyl (R)-1-[(S)-isoleucinyl]pyrrolidine-2-phosphonate hydochloride]
- t1/2 in buffer [2]: 10 ± 5 h
- t1/2 in plasma [3]: 1.4 ± 0.9 h

Compound: Cl.N[C@@H](Cc1ccccc1)C(=O)N1CCC[C@@H]1P(=O)(Oc1ccccc1)Oc1ccccc1 [AB22, Diphenyl (S)-1-[(S)-phenaylalyl]pyrrolidine-2-phosphonate hydrochloride]
- inhibitory activity on DPPIV (in words) (DPPIV [1]): inactive

Compound: C[C@H](N)C(=O)N1CCCC1P(=O)(Oc1ccccc1)Oc1ccccc1.Cl (stereo partly drawn) [Ala-Pro-(OPh)2, Diphenyl (S,R)-1-[(S)-alanyl]pyrrolidine-2-phosphonate hydrochloride]
- IC50 (DPPIV [1]; [8]): 2000 µM
- K+ (second order rate constant) (DPPIV [4]): 0.7 M⁻¹ s⁻¹
- stability of the adduct at room temperature (DPPIV [5]): > 4 weeks

Compound: CC[C@H](C)[C@H](NC(=O)[C@H](Cc1ccc(O)cc1)NC(=O)[C@@H](NC(=O)[C@H](CCCNC(=N)N)NC(=O)[C@@H](N)CC(=O)O)C(C)C)C(=O)N[C@@H](Cc1c[nH]cn1)C(=O)N1CCC[C@H]1C(=O)O [Angiotensin (1-7)]
- IC50 [6, 9]: 750 µM

Compound: CC[C@H](C)[C@H](NC(=O)[C@H](Cc1ccc(O)cc1)NC(=O)[C@@H](NC(=O)[C@H](CCCNC(=N)N)NC(=O)[C@@H](N)CC(=O)O)C(C)C)C(=O)N[C@@H](Cc1cnc[nH]1)C(=O)N1CCC[C@H]1C(=O)N[C@@H](Cc1ccccc1)C(=O)O [Angiotensin II]
- IC50 [6, 9]: 25 µM

Compound: N[C@@H](CC1CCCCC1)C(=O)N1CCC[C@H]1P(=O)(Oc1ccccc1)Oc1ccccc1 [Cyclohexylalanine-Pro^P -(OPh)2, Diphenyl (R)-1-[(S)-cyclohexylalanyl]pyrrolidine-2-phosphonate hydrochloride]
- t1/2 in buffer [2]: 4.5 ± 0.8 h
- t1/2 in plasma [3]: 0.3 ± 0.1 h

Compound: CC[C@H](C)[C@H](N)C(=O)N1CCCC1P(=O)(Oc1ccccc1)Oc1ccccc1.Cl (stereo partly drawn) [Ile-Pro-^P -(OPh)2, Diphenyl (S,R)-1-[(S)-isoleucinyl]pyrrolidine-2-phosphonate hydochloride]
- IC50 (DPPIV [1]; [8]): 350 µM
- K+ (second order rate constant) (DPPIV [4]): 2.3 M⁻¹ s⁻¹
- stability of the adduct at room temperature (DPPIV [5]): > 3 weeks

Compound: CC(C)(C)Oc1ccc(C[C@H](N)C(=O)N2CCCC2P(=O)(Oc2ccccc2)Oc2ccccc2)cc1 (stereo partly drawn) [O-tbutyl-Tyr-Pro^P -(OPh)2]
- IC50 (DPPIV [1]; [8]): 1000 µM
- K+ (second order rate constant) (DPPIV [4]): 0.5 M⁻¹ s⁻¹

Compound: Cl.N[C@@H](Cc1ccccc1)C(=O)N1CCC[C@H]1P(=O)(Oc1ccccc1)Oc1ccccc1 [Phe-Pro^P -(OPh)2, Diphenyl (R)-1-[(S)-phenylalanyl]pyrrolidine-2-phosphonate hydrochloride]
- IC50 (DPPIV [1]): 70 µM
- stability of the adduct at room temperature (DPPIV [5]): > 3 weeks
- t1/2 in buffer [2]: 6 ± 1 h
- t1/2 in plasma [3]: 0.7 ± 0.1 h

Compound: CSCC[C@H](NC(=O)[C@H](CC(C)C)NC(=O)CNC(=O)[C@H](Cc1ccccc1)NC(=O)[C@H](Cc1ccccc1)NC(=O)[C@H](CCC(N)=O)NC(=O)[C@H](CCC(N)=O)NC(=O)[C@@H]1CCCN1C(=O)[C@H](CCCCN)NC(=O)[C@@H]1CCCN1C(=O)[C@@H](N)CCCN=C(N)N)C(N)=O [Substance P]
- IC50 [6]: 163 µM

Compound: O=C(NC(Cc1ccccc1)C(=O)N1CCC1)OCc1ccccc1 (stereo not drawn) [Z-Phe-azetidine]
- IC50 [7]: 30 µM

Compound: O=C([C@@H]1CCCN1C(=O)OCc1ccccc1)N1CCC(F)C1 (stereo partly drawn) [Z-Pro-3-fluoropyrrolidine, 1-[N-Benzyloxycarbonyl-L-propyl]-3(R,S)-fluoropyrrolidine]
- inhibitory activity on PEP (in words) [7]: particularly active inhibitor
- IC50 [7]: 0.45 µM
- Ki [7]: 0.1 µM

Compound: O=C(C1CCCN1C(=O)OCc1ccccc1)N1CCC1 (stereo not drawn) [Z-Pro-azetidine]
- IC50 [7]: 3 µM
- Ki [7]: 2.5 µM

Compound: O=C(C1CSCN1C(=O)OCc1ccccc1)N1CCC1 (stereo not drawn) [Z-thiopro-azetidine]
- IC50 [7]: 1.8 µM
- Ki [7]: 5 µM

Compound: Cl.N[C@@H](Cc1ccc(F)cc1)C(=O)N1CCC[C@H]1P(=O)(Oc1ccccc1)Oc1ccccc1 [pF-Phe-Pro^P -(OPh)2, Diphenyl (R)-1-[(S)-p-fluorophenylalanyl]pyrrolidine-2-phosphonate hydrochloride]
- IC50 (DPPIV [1]): 100 µM
- stability of the adduct at room temperature (DPPIV [5]): > 4 weeks
- t1/2 in buffer [2]: 8.9 ± 0.1 h
- t1/2 in plasma [3]: 0.7 ± 0.1 h

Compound: RPPGFSPFR [Bradykinin]
- IC50 [6]: 7 µM
